test system: CYP26A1, CYP26B1 or CYP2C8; test: In vitro stability of candesartan cilexetil; assay type: in vitro ADME; settings: 1 μM, 5 nM CYP26A1, CYP26B1 or CYP2C8, NADPH, up to 10 minutes; data not shown

| SMILES | Degradation of candesartan cilexetil |
| --- | --- |
| CCOc1nc2cccc(C(=O)OC(C)OC(=O)OC3CCCCC3)c2n1Cc1ccc(-c2ccccc2-c2nnn[nH]2)cc1 (centres unmarked) [Candesartan Cilexetil] | Minimal degradation |

test system: not given; test: not given; settings: unbound fraction in plasma; ref [64]–[73]; cited from earlier work

| SMILES | fu,plasma |
| --- | --- |
| CN(CCOc1ccc(CC2SC(=O)NC2=O)cc1)c1ccccn1 (centres unmarked) [Rosiglitazone] | 0.002 |
| C#C[C@]1(O)CC[C@H]2[C@@H]3CCc4cc(O)ccc4[C@H]3CC[C@@]21C [17α-Ethynylestradiol] | 0.002 |
| O=C(c1ccc(OCCN2CCCCC2)cc1)c1c(-c2ccc(O)cc2)sc2cc(O)ccc12 [Raloxifene] | 0.050 |
| O=c1c(O)c(-c2ccc(O)c(O)c2)oc2cc(O)cc(O)c12 [Quercetin] | 0.009 |
| CCOc1cc(CC(=O)N[C@@H](CC(C)C)c2ccccc2N2CCCCC2)ccc1C(=O)O [Repaglinide] | 0.026 |

test system: not given; test: not given; settings: total plasma, clinically relevant dose as in column Oral Dose; ref [64]–[73]; cited from earlier work

| SMILES | Cmax [nM] |
| --- | --- |
| CN(CCOc1ccc(CC2SC(=O)NC2=O)cc1)c1ccccn1 (centres unmarked) [Rosiglitazone] | 1670 |
| C#C[C@]1(O)CC[C@H]2[C@@H]3CCc4cc(O)ccc4[C@H]3CC[C@@]21C [17α-Ethynylestradiol] | 0.5 |
| O=C(c1ccc(OCCN2CCCCC2)cc1)c1c(-c2ccc(O)cc2)sc2cc(O)ccc12 [Raloxifene] | 1.05 |
| O=c1c(O)c(-c2ccc(O)c(O)c2)oc2cc(O)cc(O)c12 [Quercetin] | 50.9 |
| CCOc1cc(CC(=O)N[C@@H](CC(C)C)c2ccccc2N2CCCCC2)ccc1C(=O)O [Repaglinide] | 104 |

target: T1, CYP26B1 (Homo sapiens, UniProt Q9NR63); test: Inhibition of CYP26B1-catalyzed tazarotenic acid sulfoxide formation; assay type: biochemical; settings: CYP26B1 IC50, tazarotenic acid, recombinant CYP26B1; probe tazarotenic acid sulfoxide formation; ± standard error
T1 sequence (Q9NR63 1-512): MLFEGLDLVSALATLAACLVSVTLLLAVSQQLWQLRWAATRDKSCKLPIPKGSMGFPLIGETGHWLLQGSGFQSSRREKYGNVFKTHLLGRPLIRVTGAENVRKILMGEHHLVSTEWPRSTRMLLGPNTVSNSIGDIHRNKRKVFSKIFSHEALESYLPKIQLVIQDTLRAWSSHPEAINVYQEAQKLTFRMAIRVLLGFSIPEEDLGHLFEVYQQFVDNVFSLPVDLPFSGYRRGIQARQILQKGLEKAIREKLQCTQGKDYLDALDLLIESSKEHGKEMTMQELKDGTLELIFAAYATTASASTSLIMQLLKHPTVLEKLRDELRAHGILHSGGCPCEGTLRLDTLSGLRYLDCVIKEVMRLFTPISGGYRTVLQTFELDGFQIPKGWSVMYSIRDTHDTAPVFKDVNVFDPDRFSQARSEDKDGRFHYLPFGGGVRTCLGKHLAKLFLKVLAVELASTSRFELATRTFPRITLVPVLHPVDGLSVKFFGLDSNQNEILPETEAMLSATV

| SMILES | IC50 [µM] |
| --- | --- |
| CN(CCOc1ccc(CC2SC(=O)NC2=O)cc1)c1ccccn1 (centres unmarked) [Rosiglitazone] | 8.47 ± 6.64 |
| CCOc1nc2cccc(C(=O)OC(C)OC(=O)OC3CCCCC3)c2n1Cc1ccc(-c2ccccc2-c2nnn[nH]2)cc1 (centres unmarked) [Candesartan Cilexetil] | 0.27 ± 0.06 |
| O=C(c1ccc(OCCN2CCCCC2)cc1)c1c(-c2ccc(O)cc2)sc2cc(O)ccc12 [Raloxifene] | 3.28 ± 1.15 |
| O=c1c(O)c(-c2ccc(O)c(O)c2)oc2cc(O)cc(O)c12 [Quercetin] | 76.2 ± 148 |
| CCOc1cc(CC(=O)N[C@@H](CC(C)C)c2ccccc2N2CCCCC2)ccc1C(=O)O [Repaglinide] | 0.61 ± 0.25 |

same assay, conditions: read-out: CYP26B1 IC50, tazarotenic acid; recombinant CYP26B1; probe tazarotenic acid sulfoxide formation; ± standard error

| SMILES | IC50 [µM] |
| --- | --- |
| C#C[C@]1(O)CC[C@H]2[C@@H]3CCc4cc(O)ccc4[C@H]3CC[C@@]21C [17α-Ethynylestradiol] | 6.73 ± 3.77 |

target: T1, CYP26B1; test: Spectral binding determination, CYP26B1; settings: UV-difference spectra

| SMILES | Binding mechanism, CYP26B1 |
| --- | --- |
| CCOc1nc2cccc(C(=O)OC(C)OC(=O)OC3CCCCC3)c2n1Cc1ccc(-c2ccccc2-c2nnn[nH]2)cc1 (centres unmarked) [Candesartan Cilexetil] | No binding spectra could be obtained |

target: T2, CYP2C8 (Homo sapiens, UniProt P10632); test: not given; settings: read-out: CYP2C8 IC50; substrate amodiaquine; ref [51]; cited from earlier work
T2 sequence (P10632 1-490): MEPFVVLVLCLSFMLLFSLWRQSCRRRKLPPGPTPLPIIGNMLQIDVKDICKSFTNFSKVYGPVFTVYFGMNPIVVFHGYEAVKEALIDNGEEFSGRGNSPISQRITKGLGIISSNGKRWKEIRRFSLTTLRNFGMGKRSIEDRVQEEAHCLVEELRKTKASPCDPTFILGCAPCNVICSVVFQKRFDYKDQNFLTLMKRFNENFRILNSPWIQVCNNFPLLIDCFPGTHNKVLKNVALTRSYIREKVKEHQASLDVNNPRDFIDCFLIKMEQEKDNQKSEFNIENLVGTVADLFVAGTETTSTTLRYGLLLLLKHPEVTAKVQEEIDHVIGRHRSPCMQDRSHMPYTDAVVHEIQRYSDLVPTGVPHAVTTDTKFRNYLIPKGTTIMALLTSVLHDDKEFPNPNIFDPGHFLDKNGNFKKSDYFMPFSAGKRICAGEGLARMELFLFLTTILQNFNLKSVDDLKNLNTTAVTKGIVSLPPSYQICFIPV

| SMILES | IC50 [µM] |
| --- | --- |
| CN(CCOc1ccc(CC2SC(=O)NC2=O)cc1)c1ccccn1 (centres unmarked) [Rosiglitazone] | 10.8 ± 3.1 |
| CCOc1nc2cccc(C(=O)OC(C)OC(=O)OC3CCCCC3)c2n1Cc1ccc(-c2ccccc2-c2nnn[nH]2)cc1 (centres unmarked) [Candesartan Cilexetil] | 0.496 ± 0.19 |
| C#C[C@]1(O)CC[C@H]2[C@@H]3CCc4cc(O)ccc4[C@H]3CC[C@@]21C [17α-Ethynylestradiol] | 6.54 ± 1.22 |
| O=C(c1ccc(OCCN2CCCCC2)cc1)c1c(-c2ccc(O)cc2)sc2cc(O)ccc12 [Raloxifene] | 2.15 ± 0.9 |

same assay, conditions: read-out: CYP2C8 IC50; substrate montelukast (HLM); ref [44]; cited from earlier work

| SMILES | IC50 [µM] |
| --- | --- |
| CCOc1cc(CC(=O)N[C@@H](CC(C)C)c2ccccc2N2CCCCC2)ccc1C(=O)O [Repaglinide] | 11.1 |

test system: not given; test: not given; settings: human, in vivo

| SMILES | Cmax,u [nM] |
| --- | --- |
| CN(CCOc1ccc(CC2SC(=O)NC2=O)cc1)c1ccccn1 (centres unmarked) [Rosiglitazone] | 3.40 |
| C#C[C@]1(O)CC[C@H]2[C@@H]3CCc4cc(O)ccc4[C@H]3CC[C@@]21C [17α-Ethynylestradiol] | 0.00085 |
| O=C(c1ccc(OCCN2CCCCC2)cc1)c1c(-c2ccc(O)cc2)sc2cc(O)ccc12 [Raloxifene] | 0.50 |
| O=c1c(O)c(-c2ccc(O)c(O)c2)oc2cc(O)cc(O)c12 [Quercetin] | 0.45 |
| CCOc1cc(CC(=O)N[C@@H](CC(C)C)c2ccccc2N2CCCCC2)ccc1C(=O)O [Repaglinide] | 2.60 |

target: T3, CYP26A1 (Homo sapiens, UniProt O43174); test: Inhibition of CYP26A1-catalyzed tazarotenic acid sulfoxide formation; assay type: biochemical; settings: not given
T3 sequence (O43174 1-497): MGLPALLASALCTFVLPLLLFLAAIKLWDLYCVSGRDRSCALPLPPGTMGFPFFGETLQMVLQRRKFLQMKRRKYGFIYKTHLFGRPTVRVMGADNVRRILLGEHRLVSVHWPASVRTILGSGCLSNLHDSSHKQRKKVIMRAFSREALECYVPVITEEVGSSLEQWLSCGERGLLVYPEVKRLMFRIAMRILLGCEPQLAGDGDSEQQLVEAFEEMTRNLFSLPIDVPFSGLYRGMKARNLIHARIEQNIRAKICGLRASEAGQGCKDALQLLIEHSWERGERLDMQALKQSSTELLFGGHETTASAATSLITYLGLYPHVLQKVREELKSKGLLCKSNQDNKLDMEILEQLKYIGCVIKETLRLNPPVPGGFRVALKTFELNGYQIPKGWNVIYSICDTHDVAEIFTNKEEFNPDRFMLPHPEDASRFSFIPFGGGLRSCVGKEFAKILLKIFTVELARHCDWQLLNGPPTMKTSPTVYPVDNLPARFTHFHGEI

| SMILES | IC50 [µM] |
| --- | --- |
| CCOc1nc2cccc(C(=O)OC(C)OC(=O)OC3CCCCC3)c2n1Cc1ccc(-c2ccccc2-c2nnn[nH]2)cc1 (centres unmarked) [Candesartan Cilexetil] | 0.41 ± 0.32 |

same assay, conditions: CYP26A1 IC50, tazarotenic acid, recombinant CYP26A1; probe tazarotenic acid sulfoxide formation; ± standard error

| SMILES | IC50 [µM] |
| --- | --- |
| CN(CCOc1ccc(CC2SC(=O)NC2=O)cc1)c1ccccn1 (centres unmarked) [Rosiglitazone] | 11.9 ± 1.02 |
| O=C(c1ccc(OCCN2CCCCC2)cc1)c1c(-c2ccc(O)cc2)sc2cc(O)ccc12 [Raloxifene] | 1.78 ± 0.77 |
| O=c1c(O)c(-c2ccc(O)c(O)c2)oc2cc(O)cc(O)c12 [Quercetin] | 1.92 ± 0.39 |
| CCOc1cc(CC(=O)N[C@@H](CC(C)C)c2ccccc2N2CCCCC2)ccc1C(=O)O [Repaglinide] | 7.73 ± 2.69 |

same assay, conditions: read-out: CYP26A1 IC50, tazarotenic acid; recombinant CYP26A1; probe tazarotenic acid sulfoxide formation; ± standard error

| SMILES | IC50 [µM] |
| --- | --- |
| C#C[C@]1(O)CC[C@H]2[C@@H]3CCc4cc(O)ccc4[C@H]3CC[C@@]21C [17α-Ethynylestradiol] | 2.24 ± 1.33 |

test system: CYP26A1; test: not given; settings: in vitro; ref [97]; cited from earlier work

| SMILES | Inhibition of CYP26A1-catalyzed 4-hydroxyretinoic acid formation |
| --- | --- |
| O=c1c(O)c(-c2ccc(O)c(O)c2)oc2cc(O)cc(O)c12 [Quercetin] | not be inhibitors |

Reference: paper PMC6628712 (Journal of enzyme inhibition and medicinal chemistry, 2016)
